In patent US12324802B2, “Modulators of cystic fibrosis transmembrane conductance regulator” (Vertex Pharmaceuticals Incorporated, priority 2020, dated 2025) one finds EC50 data, which are given here for 31 compounds.

The EC50 is the concentration giving half of the maximal effect.

The assay deals with T1, CFTR (F508del/MF-HBE cells) (Homo sapiens, UniProt P13569, DEL508-508).
T1 construct: human bronchial epithelial (HBE) cells derived from CF subjects heterozygous for F508del and a minimal function CFTR mutation; endogenous in cells; host or cells: primary human bronchial epithelial cells from CF subjects (F508del/MF genotype)
T1 sequence (P13569 with tags, fused parts or gaps DEL508-508): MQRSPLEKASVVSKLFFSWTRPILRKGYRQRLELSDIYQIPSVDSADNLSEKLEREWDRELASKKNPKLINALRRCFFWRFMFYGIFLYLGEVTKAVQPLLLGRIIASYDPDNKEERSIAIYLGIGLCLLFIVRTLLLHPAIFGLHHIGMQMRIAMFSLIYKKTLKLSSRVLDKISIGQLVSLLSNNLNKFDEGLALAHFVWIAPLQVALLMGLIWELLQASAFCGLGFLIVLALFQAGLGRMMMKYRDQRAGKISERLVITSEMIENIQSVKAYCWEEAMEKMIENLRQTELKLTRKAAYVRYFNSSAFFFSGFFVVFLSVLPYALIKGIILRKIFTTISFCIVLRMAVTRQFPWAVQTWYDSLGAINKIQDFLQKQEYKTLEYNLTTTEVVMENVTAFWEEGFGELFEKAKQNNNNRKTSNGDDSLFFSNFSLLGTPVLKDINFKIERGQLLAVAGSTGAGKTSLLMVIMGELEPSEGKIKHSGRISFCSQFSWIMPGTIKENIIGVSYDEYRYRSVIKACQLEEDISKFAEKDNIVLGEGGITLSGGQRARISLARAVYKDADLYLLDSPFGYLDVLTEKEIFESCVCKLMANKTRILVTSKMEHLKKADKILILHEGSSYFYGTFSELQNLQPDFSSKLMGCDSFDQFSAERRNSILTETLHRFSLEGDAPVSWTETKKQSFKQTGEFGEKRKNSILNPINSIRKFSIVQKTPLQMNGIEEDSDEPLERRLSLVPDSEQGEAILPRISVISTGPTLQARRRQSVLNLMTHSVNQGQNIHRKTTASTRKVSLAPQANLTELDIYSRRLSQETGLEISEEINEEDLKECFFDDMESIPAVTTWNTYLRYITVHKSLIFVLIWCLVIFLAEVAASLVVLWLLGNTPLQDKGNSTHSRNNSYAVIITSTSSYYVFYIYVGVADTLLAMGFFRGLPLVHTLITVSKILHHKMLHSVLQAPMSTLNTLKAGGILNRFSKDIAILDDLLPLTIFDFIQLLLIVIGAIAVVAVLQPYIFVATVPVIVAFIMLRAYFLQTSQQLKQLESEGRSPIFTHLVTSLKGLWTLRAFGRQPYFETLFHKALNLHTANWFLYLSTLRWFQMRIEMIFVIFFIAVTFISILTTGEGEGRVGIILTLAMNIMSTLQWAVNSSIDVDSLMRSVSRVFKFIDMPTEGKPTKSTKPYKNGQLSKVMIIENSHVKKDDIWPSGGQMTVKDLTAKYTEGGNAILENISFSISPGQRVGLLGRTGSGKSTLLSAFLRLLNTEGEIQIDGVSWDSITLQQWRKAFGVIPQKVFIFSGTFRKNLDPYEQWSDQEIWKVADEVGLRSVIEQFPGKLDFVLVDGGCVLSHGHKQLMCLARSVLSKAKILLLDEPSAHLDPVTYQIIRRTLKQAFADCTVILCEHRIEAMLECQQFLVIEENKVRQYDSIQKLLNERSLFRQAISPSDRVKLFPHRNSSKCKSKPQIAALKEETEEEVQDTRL
The assay can be described thus: Ussing chamber assay of CFTR-mediated short-circuit currents (identification of potentiator compounds). In kind it is cell-based. To be noted: CFTR-mediated ISC in F508del/MF-HBE cells; incubated 18-24 hours at 37° C. with 10 μM (14S)-8-[3-(2-{dispiro[2.0.2.1]heptan-7-yl}ethoxy)-1H-pyrazol-1-yl]-...-2,2,4-trione, 20% human serum. The gist of the method:
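Short-circuit current was voltage-clamped at 0 mV and 37 °C in pH 7.4 HEPES buffers, with amiloride (30 μM) on the apical side. The CFTR component was defined as forskolin (20 μM) peak minus residual current after BPO/GlyH-101/CFTRinh-172 at 20 μM each. Cells had been pretreated 18–24 h with potentiator concentrations and 10 μM corrector in 20% human serum, kept throughout the measurement.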
For the compound `Nc1cc(-c2ccccn2)c2nc1-c1nnc(o1)C(O)(C(F)(F)F)CCCCC[C@@H]1CCCN21` (mixture of isomers) [Compound 132, (12R)-20-amino-18-(pyridin-2-yl)-6-(trifluoromethyl)-22-oxa-3,4,16,21-tetraazatetracyclo[15.3.1.12,5.012,16]docosa-1(21),2,4,17,19-pentaen-6-ol], the EC50 was more than 1000 nM. As for `CC1(C)CCCCC(O)(C(F)(F)F)C2=NN=C(O2)c2nc(c(C(F)(F)F)cc2N)NC1` (single isomer, unassigned) [Compound 171, 17-amino-11,11-dimethyl-6,15-bis(trifluoromethyl)-19-oxa-3,4,13,18-tetrazatricyclo[12.3.1.12,5]nonadeca-1(18),2,4,14,16-pentaen-6-ol], the EC50 is less than 500 nM. Consider `Nc1cc(C(F)(F)F)c2nc1-c1nnc(o1)C(O)(CO)CCCCC[C@@H]1CCCN21` (single isomer, unassigned) [Compound 101], for which the half-maximal effective concentration (EC50) is less than 500 nM. For `Nc1cc(C(F)(F)F)c2nc1-c1nnc(o1)C(O)(C(F)(F)F)CCCCCCN2` (single isomer, unassigned) [Compound 56, 17-amino-6,15-bis(trifluoromethyl)-19-oxa-3,4,13,18-tetrazatricyclo[12.3.1.12,5]nonadeca-1(18),2,4,14,16-pentaen-6-ol], the concentration giving a half-maximal response (EC50) is less than 500 nM. For the compound `COCCN1CCCCCCC(O)(C(F)(F)F)C2=NN=C(O2)c2nc1c(C(F)(F)F)cc2N` (single isomer, unassigned) [Compound 34, 17-amino-13-(2-methoxyethyl)-6,15-bis(trifluoromethyl)-19-oxa-3,4,13,18-tetrazatricyclo[12.3.1.12,5]nonadeca-1(18),2,4,14,16-pentaen-6-ol], the EC50 was less than 500 nM. As to `CC1(C)Nc2nc(c(N)cc2C(F)(F)F)C2=NN=C(O2)[C@@](O)(C(F)(F)F)CCCCC1O` (single isomer, unassigned) [Compound 204], the EC50 was less than 500 nM. In the case of `Nc1cc(Sc2ccc(OC(F)(F)F)cc2)c2nc1-c1nnc(o1)C(O)(C(F)(F)F)CCCCC[C@@H]1CCCN21` (stereo partly drawn) [Compound 146, (12R)-20-amino-18-{[4-(trifluoromethoxy)phenyl]sulfanyl}-6-(trifluoromethyl)-22-oxa-3,4,16,21-tetraazatetracyclo[15.3.1.12,5.012,16]docosa-1(21),2,4,17,19-pentaen-6-ol], the EC50 was less than 500 nM.

Regarding `CC1(C)CNc2nc(c(N)cc2C(F)(F)F)C2=NN=C(O2)[C@@](O)(C(F)(F)F)CCCO1` [Compound 186, (6R)-17-amino-11,11-dimethyl-6,15-bis(trifluoromethyl)-10,19-dioxa-3,4,13,18-tetrazatricyclo[12.3.1.12,5]nonadeca-1(17),2,4,14(18),15-pentaen-6-ol], the half-maximal effective concentration (EC50) was less than 500 nM.

As for `Nc1cc(S(=O)(=O)c2ccc(OC(F)(F)F)cc2)c2nc1-c1nnc(o1)C(O)(C(F)(F)F)CCCCC[C@@H]1CCCN21` (single isomer, unassigned) [Compound 153], the EC50 is more than 1000 nM. For `CC(C)N1CCCCCCC(O)(C(F)(F)F)C2=NN=C(O2)c2nc1c(C(F)(F)F)cc2N` (single isomer, unassigned) [Compound 53, 17-amino-13-isopropyl-6,15-bis(trifluoromethyl)-19-oxa-3,4,13,18-tetrazatricyclo[12.3.1.12,5]nonadeca-1(18),2,4,14,16-pentaen-6-ol], the EC50 was more than 1000 nM. For `Nc1cc(S(=O)(=O)c2ccccc2)c2nc1-c1nnc(o1)C(O)(C(F)(F)F)CCCCC[C@@H]1CCCN21` (single isomer, unassigned) [Compound 140] the value was more than 1000 nM.

On to `Nc1cc(C2CCOCC2)c2nc1-c1nnc(o1)C(O)(C(F)(F)F)CCCCC[C@@H]1CCCN21` (mixture of isomers) [Compound 123, (12R)-20-amino-18-(oxan-4-yl)-6-(trifluoromethyl)-22-oxa-3,4,16,21-tetraazatetracyclo[15.3.1.12,5.012,16]docosa-1(21),2,4,17,19-pentaen-6-ol], for which the EC50 was more than 1000 nM.

For `Nc1cc(C(F)(F)F)c2nc1-c1nnc(o1)[C@@](O)(C(F)(F)F)c1cc(ccc1F)C=CC[C@@H]1CCCN21` (mixture of isomers) [Compound 138, (6R,15S)-23-amino-8-fluoro-6,21-bis(trifluoromethyl)-26-oxa-3,4,19,24-tetraazapentacyclo[18.3.1.12,5.17,11.015,19]hexacosa-1(24),2,4,7(25),8,10,12,20,22-nonaen-6-ol], the EC50 is less than 500 nM. As for `Nc1cc(C(F)(F)F)c2nc1-c1nnc(o1)C(O)(C(F)(F)F)c1ccc(F)c(c1)CCC[C@@H]1CCCN21` (single isomer, unassigned) [Compound 131], the EC50 was less than 500 nM. Regarding `Nc1cc(C(F)(F)F)c2nc1-c1nnc(o1)C(O)(C(F)(F)F)CCCCCC(c1ccccc1)N2` (single isomer, unassigned) [Compound 119, 17-amino-12-phenyl-6,15-bis(trifluoromethyl)-19-oxa-3,4,13,18-tetrazatricyclo[12.3.1.12,5]nonadeca-1(18),2,4,14,16-pentaen-6-ol], the EC50 was less than 500 nM. As to `Nc1cc(C(F)(F)F)c2nc1-c1nnc(o1)[C@@](O)(C(F)(F)F)CCCCCC(c1ncccn1)N2` (single isomer, unassigned) [Compound 201], the EC50 was less than 500 nM. Regarding `CN(C)C(=O)C1CCCCCC(O)(C(F)(F)F)C2=NN=C(O2)c2nc(c(C(F)(F)F)cc2N)N1` (single isomer, unassigned) [Compound 151, 17-amino-6-hydroxy-N,N-dimethyl-6,15-bis(trifluoromethyl)-19-oxa-3,4,13,18-tetrazatricyclo[12.3.1.12,5]nonadeca-1(18),2,4,14,16-pentaene-12-carboxamide], the EC50 was more than 1000 nM.

In the case of `Nc1cc(C(F)(F)F)c2nc1-c1nnc(o1)C(O)(C(F)(F)F)CCCCCC(=O)N2` (single isomer, unassigned) [Compound 109, 17-amino-6-hydroxy-6,15-bis(trifluoromethyl)-19-oxa-3,4,13,18-tetrazatricyclo[12.3.1.12,5]nonadeca-1(18),2,4,14,16-pentaen-12-one], the concentration giving a half-maximal response (EC50) is more than 1000 nM. `CNc1cc(C(F)(F)F)c2nc1-c1nnc(o1)[C@](O)(C(F)(F)F)CCCCC[C@@H]1CCCN21` [Compound 15, (6S,12R)-20-(methylamino)-6,18-bis(trifluoromethyl)-22-oxa-3,4,16,21-tetraazatetracyclo[15.3.1.12,5.012,16]docosa-1(21),2,4,17,19-pentaen-6-ol]: the half-maximal effective concentration (EC50) was more than 1000 nM. In the case of `COC(=O)c1cc(N)c2nc1N1CCC[C@H]1CCCCCC(O)(C(F)(F)F)C1=NN=C2O1` (single isomer, unassigned) [Compound 170], the 50% effective concentration (EC50) was less than 500 nM.

Consider `Nc1cc(C(F)(F)F)c2nc1-c1nnc(o1)C(O)(C(F)(F)F)CCCCC[C@@H]1COCC(=O)N21` (single isomer, unassigned) [Compound 116], for which the EC50 is less than 500 nM. On to `Nc1cc(C(F)(F)F)c2nc1-c1nnc(o1)C(O)(C(F)(F)F)CCCOC[C@@H]1CCCN21` (single isomer, unassigned) [Compound 167], for which the 50% effective concentration (EC50) is less than 500 nM.

With `Nc1cc(C(F)(F)F)c2nc1-c1nnc(o1)-c1c(O)cccc1CCCC[C@@H]1CCCN21` [Compound 134, (16R)-24-amino-22-(trifluoromethyl)-26-oxa-3,4,20,25-tetraazapentacyclo[19.3.1.12,5.06,11.016,20]hexacosa-1(25),2,4,6(11),7,9,21,23-octaen-7-ol], the EC50 was more than 1000 nM. On to `Nc1cc(C(F)(F)F)c2nc1-c1nnc(o1)[C@](O)(C(F)(F)F)CCCCC[C@@H]1CCCN21` [Compound 5, (6S,12R)-20-amino-6,18-bis(trifluoromethyl)-22-oxa-3,4,16,21-tetraazatetracyclo[15.3.1.12,5.012,16]docosa-1(21),2,4,17,19-pentaen-6-ol], for which the concentration for a half-maximal effect (EC50) was more than 1000 nM. For the compound `CS(=O)(=O)c1cc(N)c2nc1N1CCC[C@H]1CCCCCC(O)(C(F)(F)F)C1=NN=C2O1` (single isomer, unassigned) [Compound 161], the concentration giving a half-maximal response (EC50) was less than 500 nM. As to `CN1CCCCCCC(O)(C(F)(F)F)C2=NN=C(O2)c2nc1c(C(F)(F)F)cc2N` (single isomer, unassigned) [Compound 19, 17-amino-13-methyl-6,15-bis(trifluoromethyl)-19-oxa-3,4,13,18-tetrazatricyclo[12.3.1.12,5]nonadeca-1(18),2,4,14,16-pentaen-6-ol], the EC50 was less than 500 nM.

Regarding `CN1CCCCCCC(O)(C(F)(F)F)C2=NN=C(O2)c2nc1c(S(C)(=O)=O)cc2N` (single isomer, unassigned) [Compound 40, 17-amino-13-methyl-15-methylsulfonyl-6-(trifluoromethyl)-19-oxa-3,4,13,18-tetrazatricyclo[12.3.1.12,5]nonadeca-1(18),2,4,14,16-pentaen-6-ol], the EC50 is 500 to 1000 nM. Consider `CC1(C)CCC(O)CC[C@](O)(C(F)(F)F)C2=NN=C(O2)c2nc(c(C(F)(F)F)cc2N)N1` (single isomer, unassigned) [Compound 189], for which the EC50 was more than 1000 nM. For the compound `Nc1cc(C2CC2)c2nc1-c1nnc(o1)C(O)(C(F)(F)F)CCCCC[C@@H]1CCCN21` (single isomer, unassigned) [Compound 90], the concentration giving a half-maximal response (EC50) was less than 500 nM.

Turning to `Nc1cc(S(=O)(=O)c2ccccc2)c2nc1-c1nnc(o1)C(O)(C(F)(F)F)CCCCC[C@@H]1CCCN21` (single isomer, unassigned) [Compound 141], the EC50 is less than 500 nM. For `Nc1cc(Br)c2nc1-c1nnc(o1)C(O)(C(F)(F)F)CCCCC[C@@H]1CCCN21` (stereo partly drawn) [Compound 144, (12R)-20-amino-18-bromo-6-(trifluoromethyl)-22-oxa-3,4,16,21-tetraazatetracyclo[15.3.1.12,5.012,16]docosa-1(21),2,4,17,19-pentaen-6-ol] the value was less than 500 nM.
